Data published in publication PMC11556054, “Development and Synthesis of Bombesin-Based Radiopharmaceutical Precursors Modified with Knottin” (Modern Technologies in Medicine, 2024).

Experiments:
[1] = Radiochemical stability of 177Lu-labeled structures in 0.9% sodium chloride (radio-HPLC); format: physicochemical; conditions: for radiochemical purity after 168 h: 168 h in 0.9% sodium chloride at 37°C
Description: Lutetium (^177Lu) chloride was used as a radioligand. […] The radioactivity of samples was measured with a gamma counter ISOMED 2010 (PTW, Germany). Labeling of the peptides was conducted on a Gaia/Luna complex (Elysia-Raytest, Germany). […] The system was controlled by the Clarity programs (Clarity Software, Great Britain). The labeled peptides were purified from free lutetium with the help of single-use cartridges C18 (ABX, Germany), the GAIA complex was used according to the gel-filtration principle.

[2] = tested on: PC-3 culture; test: Binding of 6-FAM-labeled peptides to cell culture, fluorescence microscopy; format: cell-based, human; conditions: 1 μmol/L, 3 h incubation, washed with cooled phosphate buffer, ImageJ, >300 cells
Description: (§1) A fluorescent dye 6-FAM in the form of amine (Lumiprob, Russia) was used for bonding analysis. The peptides were labeled according a standard manufacturer protocol: they were dissolved in 0.1 mol/L solution of NaHCO3, 6-FAM dye was then added to the solution and incubated for 30 min at room temperature in the dark. The peptides were purified from the dye excess using alcohol precipitation method. For purification, one part of the labeled peptide solution was mixed with nine parts of the 95% ethanol cooled at –20°C. Further, the peptides were incubated for 90 min at the same temperature (–20°C). After incubation, the cooled solution was centrifuged for 15 min at 13,000 rpm in the Allegra centrifuge (Beckman Coulter, USA). After centrifugation, the supernatant, containing the labeled peptide, was removed and dried using a vacuum concentrator (Eppendorf, Germany).
(§2) The peptides were bound to the cell cultures such as HCT-116, LnCap, PC-3, CHO-K1. The HCT-116 (human colorectal carcinoma cell line) and CHO-K1 (an epithelial cell line derived from the Chinese hamster ovary) were obtained from the Russian collection of cell cultures of vertebrate. The LnCap (PSMA-positive adenocarcinoma of the human prostate gland) and PC-3 cultures (PSMA-negative adenocarcinoma of the human prostate obtained from the bone metastases) were kindly provided by the N.N. Blokhin National Medical Research Center of Oncology (Russia). […]
(§3) 24 h before the experiment, the cultures were seeded in 24-well plates at the concentration of 100,000/well (LnCap — 150,000/well) to achieve the exponential stage. […] After the incubation, the medium with unbonded peptides was removed, the plate wells were washed with a cooled phosphate buffer and the fluorescence signal was recorded using an optical system equipped with a Nikon Ti-S microscope, DS-Qi1MC camera, S Plan Fluor ELWD 20×0.45 objective lenses, 465-495/515-555 nm filter (Nikon, Japan), and a computer with NIS-elements 4.0 software package.
(§4) The quantitative analysis of images was performed with an ImageJ program. The fluorescence signal from more than 300 cells was analyzed for each peptide. The fluorescence intensity was calculated by the following formula: total cell fluorescence = integral density – (area of the selected cell × mean fluorescence of the background indicators) as described by Khokhlova et al.. Shortly it looks like as follows: to obtain a fluorescence signal of each selected cell in the ImageJ program, the integral density parameter is taken, after that, the fluorescence of the background, equal in area to the cell size, is subtracted from this parameter. The fluorescence signal without peptides was registered as a control. The data were presented in the relative units of fluorescence.

[3] = tested on: HCT-116 culture; test: as above; format: cell-based, human; conditions: 1 μmol/L, 3 h incubation, washed with cooled phosphate buffer, ImageJ, >300 cells
Description: as §1, §2, §3, §4

[4] = tested on: LnCap culture; test: as above; format: cell-based, human; conditions: 1 μmol/L, 3 h incubation, washed with cooled phosphate buffer, ImageJ, >300 cells
Description: as §1, §2, §3, §4

[5] = Chemical stability in 0.9% sodium chloride (HPLC chromatographic purity); format: physicochemical; conditions: target peak area as % of total peak area, M±SD
Description: The analysis of the synthesis and purity control of the commercial PSMA-617 (Huayi Isotopes, China) was performed using chromatographic system Shimadzu LC-20AD XR (Shimadzu, Japan), equipped with spectrophotometric detector SPD-20A, according to the principle of the reverse-phase chromatography with the help of Luna C18 column (Dr. Maisch, Germany) and gradient elution of acetonitrile (Criochrome, Russia) from 95 to 0% and deionized water from 0 to 100% for 40 min. Mass-spectrometric analysis was conducted on the basis of MALDI-TOF mass-spectrometry using MALDI-TOF MS system, series FLEX (Bruker Daltonics, Germany). The peptide was purified by means of a high-performance liquid chromatography system NGC Quest 10 (Bio-Rad, USA) using Bio-Gel P-4 sorbent on the Econo-Column 1×30 cm (Bio-Rad, USA).
Lutetium (^177Lu) chloride was used as a radioligand. […] The radioactivity of samples was measured with a gamma counter ISOMED 2010 (PTW, Germany). Labeling of the peptides was conducted on a Gaia/Luna complex (Elysia-Raytest, Germany). […] The system was controlled by the Clarity programs (Clarity Software, Great Britain). The labeled peptides were purified from free lutetium with the help of single-use cartridges C18 (ABX, Germany), the GAIA complex was used according to the gel-filtration principle. Radiochemical stability was evaluated using the same parameters after 24, 48, 96 and 168 h in 0.9% sodium chloride at 37°C. Chemical stability was similarly fixed in 0.9% sodium chloride as described above. Chromatographic purity was calculated as a percentage of the target substance peak area in relation to the total area of the peaks on the chromatogram taken as 100%.

[6] = tested on: CHO-K1 culture; test: Binding of 6-FAM-labeled peptides to cell culture, fluorescence microscopy; format: cell-based, Chinese hamster; conditions: 1 μmol/L, 3 h incubation, washed with cooled phosphate buffer, ImageJ, >300 cells, negative control culture
Description: as §1, with “After incubation, the cooled solution was centrifuged for 15 min at 13,000 rpm in the Allegra centrifuge (Beckman Coulter, USA). After centrifugation, the supernatant, containing the labeled peptide, was removed and dried using a vacuum concentrator (Eppendorf, Germany).” left out
as §3
The quantitative analysis of images was performed with an ImageJ program. The fluorescence signal from more than 300 cells was analyzed for each peptide. […] The fluorescence signal without peptides was registered as a control. […]

Row | Compound | radiochemical purity after 24 h ([1]; 24 h in 0.9% sodium chloride at 37°C, radio-HPLC, M±SD) [%] | radiochemical purity after 48 h ([1]; 48 h in 0.9% sodium chloride at 37°C, radio-HPLC, M±SD) [%] | radiochemical purity after 168 h ([1]; radio-HPLC, M±SD) [%] | radiochemical purity, initial ([1]; initial (after labeling and C18 cartridge purification), radio-HPLC with GABI detector, acetonitrile/water (0.01% TFA) gradient, M±SD) [%] | binding to PC-3 culture (fluorescence signal) [2] | binding to HCT-116 culture (fluorescence signal) [3] | binding to LnCap culture (fluorescence signal) [4] | binding to LnCap culture (fluorescence signal) ([4]; listed as PSMA- 617) | chemical stability (chromatographic purity) after 24 h ([5]; 24 h in 0.9% sodium chloride, 37°C) [%] | chemical stability (chromatographic purity) after 168 h ([5]; 168 h in 0.9% sodium chloride, 37°C) [%] | chemical stability (chromatographic purity), initial ([5]; initial) [%] | binding to CHO-K1 culture (fluorescence signal) [6] | labeling result retained (radiochromatogram, Figure 4) after 168 h ([1]; after 168 h, radiochromatogram)
1 | O=C([O-])CN1CCN(CC(=O)[O-])CCN(CC(=O)NCC2CCC(C(=O)N[C@@H](Cc3ccc4ccccc4c3)C(=O)NCCCC[C@H](NC(=O)N[C@@H](CCC(=O)O)C(=O)O)C(=O)O)CC2)CCN(CC(=O)[O-])CC1.[177Lu+3] (some centres unmarked) [Lu-PSMA-617] | 39.6±4.1 | 19.7±2.9 | 9.2±0.7 | 99.7±3.2 | – | – | – | – | – | – | – | – | –
2 | O=C(O)CC[C@H](NC(=O)N[C@@H](CCCCNC(=O)[C@H](Cc1ccc2ccccc2c1)NC(=O)[C@H]1CC[C@H](CNC(=O)CN2CCN(CC(=O)O)CCN(CC(=O)O)CCN(CC(=O)O)CC2)CC1)C(=O)O)C(=O)O [PSMA-617] | – | – | 9.2±0.7 | – | not bound | not bound | high degree of attachment | is binding to the LnCap culture | 80.6±6.7 | 42.9±3.4 | 99.1±2.6 | not bound | almost completely detached
